Experiments:
Assay type in all cases: functional
[1] = test system: PC-3; experiment: Growth inhibition of human PC3 cells assessed as cell growth at 10^-4 M by sulforhodamine B assay; details: read-out: Activity
[2] = test system: NCI-H23; experiment: Growth inhibition of human NCI-H23 cells by sulforhodamine B assay
[3] = test system: MCF7; experiment: Growth inhibition of human MCF7 cells assessed as cell growth at 10^-6 M by sulforhodamine B assay; details: read-out: Activity
[4] = test system: NCI-H522; experiment: Growth inhibition of human NCI-H522 cells by sulforhodamine B assay
[5] = test system: NCI-H226; experiment: Growth inhibition of human NCI-H226 cells assessed as cell growth at 10^-4 M by sulforhodamine B assay; details: read-out: Activity
[6] = Growth inhibition of human NCI-ADR-RES cells assessed as cell growth at 10^-8 M by sulforhodamine B assay; details: read-out: Activity
[7] = test system: NCI-H522; experiment: Growth inhibition of human NCI-H522 cells assessed as cell growth at 10^-6 M by sulforhodamine B assay; details: read-out: Activity
[8] = test system: TK-10; experiment: Growth inhibition of human TK10 cells assessed as cell growth at 10^-6 M by sulforhodamine B assay; details: read-out: Activity
[9] = Growth inhibition of human NCI-ADR-RES cells assessed as cell growth at 10^-7 M by sulforhodamine B assay; details: read-out: Activity
[10] = test system: SNB-75; experiment: Growth inhibition of human SNB75 cells assessed as cell growth at 10^-7 M by sulforhodamine B assay; details: read-out: Activity
[11] = test system: ACHN; experiment: Growth inhibition of human ACHN cells assessed as cell growth at 10^-4 M by sulforhodamine B assay; details: read-out: Activity
[12] = test system: SK-MEL-28; experiment: Growth inhibition of human SK-MEL-28 cells assessed as cell growth at 10^-8 M by sulforhodamine B assay; details: read-out: Activity
[13] = test system: IGROV-1; experiment: Growth inhibition of human IGROV1 cells assessed as cell growth at 10^-8 M by sulforhodamine B assay; details: read-out: Activity
[14] = test system: SK-MEL-5; experiment: Growth inhibition of human SK-MEL-5 cells by sulforhodamine B assay
[15] = test system: UO-31; experiment: Growth inhibition of human UO31 cells by sulforhodamine B assay
[16] = test system: OVCAR-8; experiment: Growth inhibition of human OVCAR8 cells assessed as cell growth at 10^-7 M by sulforhodamine B assay; details: read-out: Activity
[17] = test system: U-251; experiment: Growth inhibition of human U251 cells assessed as cell growth at 10^-6 M by sulforhodamine B assay; details: read-out: Activity
[18] = test system: SF-295; experiment: Growth inhibition of human SF295 cells by sulforhodamine B assay
[19] = test system: SF-268; experiment: Growth inhibition of human SF268 cells assessed as cell growth at 10^-6 M by sulforhodamine B assay; details: read-out: Activity
[20] = test system: HOP-92; experiment: Growth inhibition of human HOP92 cells assessed as cell growth at 10^-8 M by sulforhodamine B assay; details: read-out: Activity
[21] = test system: MCF7; experiment: Growth inhibition of human MCF7 cells assessed as cell growth at 10^-8 M by sulforhodamine B assay; details: read-out: Activity
[22] = test system: MDA-MB-468; experiment: Growth inhibition of human MDA-MB-468 cells assessed as cell growth at 10^-7 M by sulforhodamine B assay; details: read-out: Activity
[23] = test system: NCI-H226; experiment: Growth inhibition of human NCI-H226 cells assessed as cell growth at 10^-8 M by sulforhodamine B assay; details: read-out: Activity
[24] = test system: NCI-H460; experiment: Growth inhibition of human NCI-H460 cells by sulforhodamine B assay
[25] = test system: PC-3; experiment: Growth inhibition of human PC3 cells by sulforhodamine B assay
[26] = test system: M14; experiment: Growth inhibition of human M14 cells assessed as cell growth at 10^-7 M by sulforhodamine B assay; details: read-out: Activity
[27] = test system: SF-268; experiment: Growth inhibition of human SF268 cells assessed as cell growth at 10^-4 M by sulforhodamine B assay; details: read-out: Activity
[28] = test system: SN12C; experiment: Growth inhibition of human SN12C cells assessed as cell growth at 10^-8 M by sulforhodamine B assay; details: read-out: Activity
[29] = test system: LOX IMVI; experiment: Growth inhibition of human LOXIMVI cells by sulforhodamine B assay
[30] = test system: RPMI-8226; experiment: Growth inhibition of human RPMI8226 cells assessed as cell growth at 10^-7 M by sulforhodamine B assay; details: read-out: Activity
[31] = test system: CAKI-1; experiment: Growth inhibition of human CAKI-1 cells assessed as cell growth at 10^-6 M by sulforhodamine B assay; details: read-out: Activity
[32] = test system: MDA-MB-231; experiment: Growth inhibition of human MDA-MB-231 cells assessed as cell growth at 10^-6 M by sulforhodamine B assay; details: read-out: Activity
[33] = test system: SN12C; experiment: Growth inhibition of human SN12C cells assessed as cell growth at 10^-6 M by sulforhodamine B assay; details: read-out: Activity
[34] = test system: MOLT-4; experiment: Growth inhibition of human MOLT4 cells by sulforhodamine B assay
[35] = test system: UACC-62; experiment: Growth inhibition of human UACC62 cells assessed as cell growth at 10^-6 M by sulforhodamine B assay; details: read-out: Activity
[36] = test system: U-251; experiment: Growth inhibition of human U251 cells assessed as cell growth at 10^-4 M by sulforhodamine B assay; details: read-out: Activity
[37] = test system: T47D; experiment: Growth inhibition of human T47D cells assessed as cell growth at 10^-7 M by sulforhodamine B assay; details: read-out: Activity
[38] = test system: UACC-62; experiment: Growth inhibition of human UACC62 cells by sulforhodamine B assay
[39] = read-out: LC50 (the source's name)
[40] = read-out: pLC50 (the source's name) (converted)

## CC(C)=CC(=O)O[C@@H]1CC(C)(C)C[C@H]2C3=CC[C@@H]4[C@@]5(C)CC[C@H](O)C(C)(C)[C@@H]5CC[C@@]4(C)[C@]3(C)CC[C@@]12C(=O)O [Reduced Lantadene B]
[1]
  growth at 100 µM: -71%
[2]; read-out: GI50
  GI50: 7.24 µM
[2]; [39]
  CC50: 84 µM
[2]; read-out: TGI
  TGI: 26.9 µM
[2]; read-out: pGI50 (converted)
  GI50: 7.24 µM
[2]; [40]
  CC50: 83.2 µM
[2]; read-out: pTGI (converted)
  TGI: 26.9 µM
[3]
  growth at 1 µM: 88%
[4]; read-out: GI50
  GI50: 4.22 µM
[4]; [39]
  CC50: 71.3 µM
[4]; read-out: TGI
  TGI: 21.8 µM
[4]; read-out: pGI50 (converted)
  GI50: 4.17 µM
[4]; [40]
  CC50: 70.8 µM
[4]; read-out: pTGI (converted)
  TGI: 21.9 µM
[5]
  growth at 100 µM: -56%
[6]
  growth at 0.01 µM: 107%
[7]
  growth at 1 µM: 78%
[8]
  growth at 1 µM: 86%
[9]
  growth at 0.1 µM: 99%
[10]
  growth at 0.1 µM: 89%
[11]
  growth at 100 µM: -75%
[12]
  growth at 0.01 µM: 100%
[13]
  growth at 0.01 µM: 104%
[14]; read-out: GI50
  GI50: 2.86 µM
[14]; [39]
  CC50: 66.7 µM
[14]; read-out: TGI
  TGI: 16.5 µM
[14]; read-out: pGI50 (converted)
  GI50: 2.88 µM
[14]; [40]
  CC50: 66.1 µM
[14]; read-out: pTGI (converted)
  TGI: 16.6 µM
[15]; read-out: GI50
  GI50: 3.69 µM
[15]; [39]
  CC50: 45.4 µM
[15]; read-out: TGI
  TGI: 15.5 µM
[15]; read-out: pGI50 (converted)
  GI50: 3.72 µM
[15]; [40]
  CC50: 45.7 µM
[15]; read-out: pTGI (converted)
  TGI: 15.5 µM
[16]
  growth at 0.1 µM: 101%
[17]
  growth at 1 µM: 73%
[18]; read-out: GI50
  GI50: 1.45 µM
[18]; [39]
  CC50: 52.8 µM
[18]; read-out: TGI
  TGI: 11.1 µM
[18]; read-out: pGI50 (converted)
  GI50: 1.45 µM
[18]; [40]
  CC50: 52.5 µM
[18]; read-out: pTGI (converted)
  TGI: 11.2 µM
[19]
  growth at 1 µM: 95%
[20]
  growth at 0.01 µM: 91%
[21]
  growth at 0.01 µM: 97%
[22]
  growth at 0.1 µM: 98%
[23]
  growth at 0.01 µM: 96%
[24]; read-out: GI50
  GI50: 3.07 µM
[24]; read-out: LC50
  LC50: > 100 µM
[24]; read-out: TGI
  TGI: 66.8 µM
[24]; read-out: pGI50 (converted)
  GI50: 3.09 µM
[24]; read-out: pLC50 (converted)
  LC50: > 100 µM
[24]; read-out: pTGI (converted)
  TGI: 66.1 µM
[25]; read-out: GI50
  GI50: 3.6 µM
[25]; [39]
  CC50: 64 µM
[25]; read-out: TGI
  TGI: 21.9 µM
[25]; read-out: pGI50 (converted)
  GI50: 3.63 µM
[25]; [40]
  CC50: 64.6 µM
[25]; read-out: pTGI (converted)
  TGI: 21.9 µM
[26]
  growth at 0.1 µM: 90%
[27]
  growth at 100 µM: -51%
[28]
  growth at 0.01 µM: 101%
[29]; read-out: GI50
  GI50: 9.09 µM
[29]; [39]
  CC50: > 100 µM
[29]; read-out: TGI
  TGI: 38.2 µM
[29]; read-out: pGI50 (converted)
  GI50: 9.12 µM
[29]; [40]
  CC50: > 100 µM
[29]; read-out: pTGI (converted)
  TGI: 38 µM
[30]
  growth at 0.1 µM: 92%
[31]
  growth at 1 µM: 85%
[32]
  growth at 1 µM: 85%
[33]
  growth at 1 µM: 89%
[34]; read-out: GI50
  GI50: 3.02 µM
[34]; [39]
  CC50: > 100 µM
[34]; read-out: TGI
  TGI: 20.6 µM
[34]; read-out: pGI50 (converted)
  GI50: 3.02 µM
[34]; [40]
  CC50: > 100 µM
[34]; read-out: pTGI (converted)
  TGI: 20.4 µM
[35]
  growth at 1 µM: 82%
[36]
  growth at 100 µM: -61%
[37]
  growth at 0.1 µM: 95%
[38]; read-out: GI50
  GI50: 1.95 µM
[38]; [39]
  CC50: 25.2 µM
[38]; read-out: TGI
  TGI: 5.48 µM
[38]; read-out: pGI50 (converted)
  GI50: 1.95 µM
[38]; [40]
  CC50: 25.1 µM
[38]; read-out: pTGI (converted)
  TGI: 5.5 µM
